From the supplement of paper PMC10627819

Legend:
S. aureus Newman [1] = experiment: fitness (endpoint OD595 vs no drug) (fraction); higher = more growth
How it was run: (§1)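 Bacterial fitness was scored as optical density at the stationary-phase transition relative to the robust mean of no-drug control wells. Scores are capped at 1. The growth data were OD595 readings every 30 min for 14 h at 37 °C, background-subtracted against the first reading, from 384-well plates inoculated at OD595 0.01 in TSB, LB Lennox or CY.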

B. subtilis 168 [2] = experiment: as above
How it was run: as §1

S. pneumoniae D39V [3] = experiment: as above
How it was run: as §1

S. aureus DSM 20231 [4] = experiment: as above
How it was run: as §1

S. aureus Newman [5] = experiment: Bliss interaction score (quartile over a dose matrix) (fitness difference); higher = more antagonism (negative = synergy)
How it was run: (§2)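 Combination data were used to infer fitness under each single drug. Fitness is the OD595 at entry into stationary phase divided by the robust mean of the plate's no-drug wells, with a cap of 1. The Bliss score is the observed minus the expected product fitness, summarised by quartiles over technical, biological and donor/recipient replicates.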

B. subtilis 168 [6] = experiment: as above
How it was run: as §2

S. pneumoniae D39V [7] = experiment: as above
How it was run: as §2

S. aureus DSM 20231 [8] = experiment: as above
How it was run: as §2
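For Bliss interaction score (quartile over a dose matrix) in this document: first quartile when negative (synergy) and third quartile when positive (antagonism).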

CO/N=C(\C(=O)N[C@@H]1C(=O)N2C(C(=O)O)=C(COC(C)=O)CS[C@H]12)c1csc(N)n1 [Cefotaxime] + CN[C@@H]1[C@H](O)[C@H](NC)[C@H]2O[C@@]3(O)C(=O)C[C@@H](C)O[C@H]3O[C@@H]2[C@H]1O [Spectinomycin]
fitness
Conditions | partner 2 µg/mL | partner 4 µg/mL | partner 8 µg/mL | partner 16 µg/mL
B. subtilis 168 [2], first compound 0.5 µg/mL | 0.234 | 0.139 | 0.0989 | –
B. subtilis 168 [2], first compound 1 µg/mL | 0.11 | 0.0503 | 0.0323 | –
B. subtilis 168 [2], first compound 2 µg/mL | 0.0973 | 0.0906 | 0.091 | –
S. aureus DSM 20231 [4], first compound 0.078 µg/mL | – | 0.791 | 0.747 | 0.714
S. aureus DSM 20231 [4], first compound 0.156 µg/mL | – | 0.704 | 0.754 | 0.711
S. aureus DSM 20231 [4], first compound 0.312 µg/mL | – | 0.68 | 0.694 | 0.596
S. aureus Newman [1], first compound 0.078 µg/mL | – | 0.697 | 0.716 | 0.686
S. aureus Newman [1], first compound 0.156 µg/mL | – | 0.582 | 0.59 | 0.503
S. aureus Newman [1], first compound 0.312 µg/mL | – | 0.272 | 0.201 | 0.0958
S. pneumoniae D39V [3], first compound 0.0018 µg/mL | – | 0.985 | 0.944 | 0.9
S. pneumoniae D39V [3], first compound 0.0035 µg/mL | – | 0.97 | 0.944 | 0.847
S. pneumoniae D39V [3], first compound 0.007 µg/mL | – | 0.834 | 0.852 | 0.8

one replicate
Conditions | fitness
B. subtilis 168 [2], first compound 0.00775 µg/mL, partner 2 µg/mL | 0.794
B. subtilis 168 [2], first compound 0.00775 µg/mL, partner 4 µg/mL | 0.796
B. subtilis 168 [2], first compound 0.00775 µg/mL, partner 8 µg/mL | 0.816
B. subtilis 168 [2], first compound 0.0155 µg/mL, partner 2 µg/mL | 0.671
B. subtilis 168 [2], first compound 0.0155 µg/mL, partner 4 µg/mL | 0.748
B. subtilis 168 [2], first compound 0.0155 µg/mL, partner 8 µg/mL | 0.571
B. subtilis 168 [2], first compound 0.031 µg/mL, partner 2 µg/mL | 0.521
B. subtilis 168 [2], first compound 0.031 µg/mL, partner 4 µg/mL | 0.519
B. subtilis 168 [2], first compound 0.031 µg/mL, partner 8 µg/mL | 0.258
S. aureus DSM 20231 [4], first compound 0.039 µg/mL, partner 4 µg/mL | 0.72
S. aureus DSM 20231 [4], first compound 0.039 µg/mL, partner 8 µg/mL | 0.747
S. aureus DSM 20231 [4], first compound 0.039 µg/mL, partner 16 µg/mL | 0.707
S. aureus DSM 20231 [4], first compound 0.078 µg/mL, partner 32 µg/mL | 0.597
S. aureus DSM 20231 [4], first compound 0.078 µg/mL, partner 64 µg/mL | 0.0453
S. aureus DSM 20231 [4], first compound 0.156 µg/mL, partner 32 µg/mL | 0.632
S. aureus DSM 20231 [4], first compound 0.156 µg/mL, partner 64 µg/mL | 0.0727
S. aureus DSM 20231 [4], first compound 0.312 µg/mL, partner 32 µg/mL | 0.583
S. aureus DSM 20231 [4], first compound 0.312 µg/mL, partner 64 µg/mL | 0.0287
S. aureus Newman [1], first compound 0.078 µg/mL, partner 32 µg/mL | 0.328
S. aureus Newman [1], first compound 0.078 µg/mL, partner 64 µg/mL | 0.0751
S. aureus Newman [1], first compound 0.156 µg/mL, partner 32 µg/mL | 0.0776
S. aureus Newman [1], first compound 0.156 µg/mL, partner 64 µg/mL | 0.0848
S. aureus Newman [1], first compound 0.312 µg/mL, partner 32 µg/mL | 0.0307
S. aureus Newman [1], first compound 0.312 µg/mL, partner 64 µg/mL | 0.0805
S. aureus Newman [1], first compound 0.625 µg/mL, partner 4 µg/mL | 0.0066
S. aureus Newman [1], first compound 0.625 µg/mL, partner 8 µg/mL | 0.0296
S. aureus Newman [1], first compound 0.625 µg/mL, partner 16 µg/mL | 0.021
S. aureus Newman [1], first compound 1.25 µg/mL, partner 4 µg/mL | 0.0276
S. aureus Newman [1], first compound 1.25 µg/mL, partner 8 µg/mL | 0.0141
S. aureus Newman [1], first compound 1.25 µg/mL, partner 16 µg/mL | 0.0089
S. aureus Newman [1], first compound 2.5 µg/mL, partner 4 µg/mL | 0.0608
S. aureus Newman [1], first compound 2.5 µg/mL, partner 8 µg/mL | 0.0355
S. aureus Newman [1], first compound 2.5 µg/mL, partner 16 µg/mL | 0.0355

Conditions | Bliss interaction score
B. subtilis 168 [6] | -0.0623
S. aureus DSM 20231 [8] | 0.0658
S. aureus Newman [5] | -0.0972
S. pneumoniae D39V [7] | 0.108
